Assay results published in patent US6825230B2, “Spiro and dispiro 1,2,4-trixolane antimalarials” (Medicines for Malaria Venture MMV, priority 2002, dated 2004).
Converted amounts (≈) assume the structure as drawn. Like-named read-outs stand apart in the source and are kept apart here.

Legend:
[1] = test system: chloroquine-resistant K1 strain of P. falciparum; experiment: In vitro antimalarial semiautomated microdilution assay ([3H]-hypoxanthine incorporation), K1 strain; assay type: cell-based, Plasmodium falciparum; conditions: Plasmodium falciparum
Method in brief: (§1)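 Asynchronous stock-culture parasites (intraerythrocytic forms), serial compound dilutions; readout [3H]-hypoxanthine uptake; IC50 via Logit regression.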

[2] = test system: chloroquine-sensitive NF54 strain of P. falciparum; experiment: In vitro antimalarial semiautomated microdilution assay ([3H]-hypoxanthine incorporation), NF54 strain; assay type: cell-based, Plasmodium falciparum; conditions: Plasmodium falciparum
Method in brief: as §1

[3] = test system: ANKA strain of P. berghei; experiment: Single dose STI in vivo screen in infected mice; design: species or system Plasmodium berghei; conditions: for Survival (days) 10 mg/kg po: single 10 mg/kg po in 3% ethanol and 7% Tween 80; for Survival (days) 10 mg/kg po / Survival (days) 10 mg/kg SSV po / Survival (days) 10 mg/kg sc: untreated 6-7 days; for Survival (days) 10 mg/kg SSV po: single 10 mg/kg po in SSV; for Survival (days) 10 mg/kg sc: single 10 mg/kg sc in 3% ethanol and 7% Tween 80
[4] = chloroquine-resistant K1 strain, 72 h incubation, read-out: IC50 (ng/ml) K1
[5] = chloroquine-sensitive NF54 strain, 72 h incubation, read-out: IC50 (ng/ml) NF54
[6] = K1, 72 h, read-out: IC50 (ng/ml) K1, chloroquine-resistant K1 strain, 72 h incubation
[7] = NF54, 72 h, read-out: IC50 (ng/ml) NF54, chloroquine-sensitive NF54 strain, 72 h incubation
[8] = single 10 mg/kg po in 3% ethanol and 7% Tween 80 on day 1 post-infection, percent reduction in parasitemia on day 3
[9] = single 10 mg/kg po in standard suspending vehicle (SSV) on day 1 post-infection, percent reduction in parasitemia on day 3
[10] = single 10 mg/kg sc in 3% ethanol and 7% Tween 80 on day 1 post-infection, percent reduction in parasitemia on day 3

Compound	IC50 [1, 4]	IC50 [2, 5]	Activity (%) 10 mg/kg SSV po ([3]; po, 10 mg/kg)	Activity (%) 10 mg/kg po ([3]; po, 10 mg/kg)	Activity (%) 10 mg/kg sc ([3]; sc, 10 mg/kg)	Survival (days) 10 mg/kg po [3]	Survival (days) 10 mg/kg SSV po [3]	Survival (days) 10 mg/kg sc [3]	IC50 [1, 6]	IC50 [2, 7]	Activity (%) 10 mg/kg po [3, 8]	Activity (%) 10 mg/kg SSV po [3, 9]	Activity (%) 10 mg/kg sc [3, 10]
O=C1c2ccccc2C(=O)N1CC[C@H]1CC[C@]2(CC1)OOC1(O2)C2CC3CC(C2)CC1C3 (stereo partly drawn) [OZ215]	6.4 ng/mL (≈ 14.6 nM)	7.3 ng/mL (≈ 16.7 nM)	25%	96%	39%	9.7 days	6.3 days	7.0 days	–	–	–	–	–
CC1(C)C2CCC1(CS(=O)(=O)N1CCC3(CC1)OOC1(O3)C3CC4CC(C3)CC1C4)C(=O)C2 (stereo not drawn) [OZ91, Adamantane-2-spiro-3′-8′-[(1′S)-10′-camphorsulfonyl]-1′,2′,4′-trioxa-8′-azaspiro[4.5]decane]	–	–	–	–	–	5.7 days	6.0 days	7.3 days	1.4 ng/mL (≈ 2.92 nM)	0.42 ng/mL (≈ 0.876 nM)	20%	0%	85%
O=S(=O)(C[C@H]1CC[C@]2(CC1)OOC1(O2)C2CC3CC(C2)CC1C3)c1ccccc1 (stereo partly drawn) [OZ210]	1.4 ng/mL (≈ 3.34 nM)	1.6 ng/mL (≈ 3.82 nM)	–	–	–	9.3 days	8.0 days	10.3 days	–	–	99.23%	77%	99.94%
CC(=O)OC(C)(C)C(=O)N[C@H]1CC[C@]2(CC1)OOC1(O2)C2CC3CC(C2)CC1C3 (stereo partly drawn) [OZ202]	–	–	–	–	–	7.0 days	7.3 days	7.3 days	6 ng/mL (≈ 14.7 nM)	7.9 ng/mL (≈ 19.4 nM)	79%	51%	74%
N=C(N)NN=C1CCC2(CC1)OOC1(O2)C2CC3CC(C2)CC1C3 (stereo not drawn) [OZ172]	–	–	–	–	–	8.0 days	10.3 days	10.3 days	3.5 ng/mL (≈ 10.5 nM)	5 ng/mL (≈ 15 nM)	68%	82%	100%
CCOC(=O)c1cccc([C@H]2CC[C@]3(CC2)OOC2(O3)C3CC4CC(C3)CC2C4)c1 (stereo partly drawn) [OZ208]	6 ng/mL (≈ 14.5 nM)	6.5 ng/mL (≈ 15.8 nM)	–	–	–	6.3 days	6.7 days	5.7 days	–	–	0%	29%	10%
c1cc(CN2CCC3(CC2)OOC2(O3)C3CC4CC(C3)CC2C4)ccn1 (stereo not drawn) [OZ216, Adamantane-2-spiro-3′-8′-(4′-pyridinylmethyl)-1′,2′,4′-trioxa-8′-azaspiro[4.5]decane]	0.4 ng/mL (≈ 1.12 nM)	0.67 ng/mL (≈ 1.88 nM)	–	–	–	6.3 days	7.7 days	11.0 days	–	–	62%	69%	99.02%
CC(=O)NC[C@H]1CC[C@]2(CC1)OOC1(O2)C2CC3CC(C2)CC1C3 (stereo partly drawn) [OZ262]	0.63 ng/mL (≈ 1.88 nM)	0.84 ng/mL (≈ 2.5 nM)	–	–	–	11.7 days	12.3 days	10.0 days	–	–	96%	98%	99.39%
NC(=O)NC[C@H]1CC[C@]2(CC1)OOC1(O2)C2CC3CC(C2)CC1C3 (stereo partly drawn) [OZ265]	0.56 ng/mL (≈ 1.66 nM)	1.6 ng/mL (≈ 4.76 nM)	–	–	–	13.0 days	9.7 days	11.7 days	–	–	99%	98%	99.67%
